Values joined by “and” are separate entries in the source; they are usually repeats but may differ in a detail not shown here. Identical values can stand only once. “Also recorded” adds a separate entry of the source.
Tests used:
TC-3 cells = test: Cellular import of fluorescein-labelled TAT and TAT-IB1(s) peptides; assay type: cell-based
[1] = test system: human foreskin fibroblasts (HFFs); test: Neutral Red cytotoxicity assay; assay type: cell-based; conditions: 1, 2, 5 μM, 24 h
[2] = test system: Varicella Zoster Virus (VZV); test: Plaque reduction assay against VZV in HFFs; assay type: cell-based; conditions: for VZV spread (pfu) ± SD: 24 h
[3] = test system: Varicella Zoster Virus (VZV); test: VZV-BAC-Luc replication (luciferase) in HFFs; assay type: cell-based; conditions: 24 h
C57BL/6 mice = test: Bleomycin-induced lung fibrosis, day 10; assay type: in vivo, mouse; conditions: for lymphocyte recruitment and total cell number in BAL: 3x in 10 days; for decrease of inflammatory cell accumulation, fibrotic areas, loss of lung architecture (histology): day 10
hAPP Tg mice = test: hAPP transgenic mouse model of Alzheimer's disease; assay type: in vivo
db/db mice = test: db/db mouse model of type 2 diabetes; assay type: in vivo
porcine islets = test: Porcine islet isolation; assay type: cell-based, pig
human islets = test: Human islets, 24 h hypoxia; assay type: cell-based; conditions: 100 μM
[4] = test system: Hep G2 tumours in SWISS nude mice; test: Orthotopic Hep G2 human liver carcinoma, dose/response; assay type: in vivo, mouse
[5] = test system: HCT 116 tumours in SCID mice; test: Orthotopic HCT 116 human colon tumour; assay type: in vivo, mouse
Wistar rats = test: PAN-induced nephropathy, frequency of administration; assay type: in vivo, rat

## NH2-DQSRPVQPFLNLTTPRKPRPPRRRQRRKKRG-COOH (H-DQSRPVQPFLNLTTPRKPRPPRRRQRRKKRG-OH; also: D-amino acids (positions not given here)) [XG-102]
TC-3 cells; 1 μM labelled peptide
  time to enter cells: < 5 분
TC-3 cells; time course
  stability inside cells: 극도로 안정하다
[1]
  cytotoxicity: 관찰되지 않았으며
[2]; 0.5 μM
  VZV spread (pfu) ± SD: 260 ± 53 pfu
[2]; 1.0 μM
  VZV spread (pfu) ± SD: 212 ± 48 pfu
[2]; 2.0 μM
  VZV spread (pfu) ± SD: 312 ± 79 pfu
[2]; interpolated from graph, read-out: EC50 (50% reduction of VZV yield)
  EC50: ~300 nM
[3]
  lowest tested concentration preventing VZV replication: 0.25 µM
C57BL/6 mice; 0.001 mg/kg s.c.
  lymphocyte recruitment and total cell number in BAL: 현저하게 감소시켰다
C57BL/6 mice; 0.001 mg/kg
  decrease of inflammatory cell accumulation, fibrotic areas, loss of lung architecture (histology): 관찰되었으나
C57BL/6 mice; 0.1 mg/kg s.c.
  lymphocyte recruitment and total cell number in BAL: 효과가 없었다
C57BL/6 mice; 0.1 mg/kg
  decrease of inflammatory cell accumulation, fibrotic areas, loss of lung architecture (histology): 관찰되지 않았다
hAPP Tg mice; 0.1 mg/kg every 2 wk or 10 mg/kg every 3 wk s.c., 4 months
  spatial learning in Morris Water Maze: 크게 영향을 받지 않았다
hAPP Tg mice; 0.1 mg/kg, p<0.05 vs vehicle
  brain Aβ1-42 level, Triton X-100 fraction: 현저한 감소를 나타내었다
hAPP Tg mice; 10 mg/kg vs vehicle
  cortical 6E10 IR plaque load: 비히클에 비해 증가하였으나
hAPP Tg mice; ELISA, 4 fractions
  brain homogenate Aβ1-40 levels: 영향을 미치지 않았다
hAPP Tg mice; p<0.01 at 10 mg/kg, <0.05 at 0.1 mg/kg
  CSF Aβ1-40 and Aβ1-42 levels: 현저하게 감소되었다
hAPP Tg mice; p<0.05 at 10 mg/kg, p<0.01 at 0.1 mg/kg
  number and area % of hippocampal ThioflavinS-positive plaques: 음성적인 투여량 의존적 감소를 유도함
db/db mice; 1 mg/kg s.c. daily 28 days
  effect on fasting blood glucose: 효과가 관찰되지 않았다
db/db mice; 1 mg/kg, 28 days
  effect on body weight: 효과가 관찰되지 않았다
db/db mice; 10 mg/kg s.c. daily 21 days, persisted to day 111, p<0.001
  fasting blood glucose plateau: ~5 mmol/L
db/db mice; 10 mg/kg, day 111
  brain, spleen, heart weight: 현저한 효과가 관찰되지 않았다
  epididymal (p<0.05) and retroperitoneal (p<0.01) fat mass: 현저한 감소를 관찰했다
  kidney (p<0.05) and liver (p<0.01) mass: 현저한 감소가 관찰되었다
db/db mice; 10 mg/kg, days 57, 77, 108
  plasma insulin, MCP-1, IL-6, tPAI-1, TNF: 현저한 효과가 발견되지 않았으며
db/db mice; 10 mg/kg, days 77 and 108
  plasma resistin: 현저하게 높았다
db/db mice; 10 mg/kg, metabolic cages
  24 h food and water intake, urine and faeces production: 현저한 효과는 관찰되지 않았다
db/db mice; 10 mg/kg, from day 28 to 111
  body weight gain: 명확하고 현저한 예방
db/db mice; high dose, after about 2 weeks of dosing, progressed to open wounds, healed after end of dosing
  injection-site finding in subcutaneous tissue: 결절 섬유화가 발견되었고
Porcine islets
  isolations with OCR/DNA above cut-off, successfully transplanted into NHPs: 6/6
Porcine islets; 10 μM
  relative c-fos gene expression: 감소시키고
Porcine islets; 10 μM in pancreas and isolation solutions
  JNK activation during isolation: 차단하고
Porcine islets; 10 μM vs paired untreated control
  viability of freshly isolated islets (OCR/DNA, ATP/protein): 통계적으로 현저하고 중요한 영향을 가짐
Human islets
  hypoxia-induced islet apoptosis: 세포 자멸을 감소시키는
Human islets; normoxia and hypoxia
  islet necrosis: 괴사를 감소시키는
[4]; 0.1 mg/kg
  T/C: 123%
[4]; 0.1 mg/kg, 2 mice
  tumour mass in liver, per mouse sacrificed at D171 (microscopy): 간에 종양 (1.3cm); also recorded: 검출된 종양 없음
[4]; 0.1 mg/kg/inj i.v. Q4Dx4, vehicle 86
  mean survival time (as headed): 105 days
[4]; 1 mg/kg
  T/C: 161%
[4]; 1 mg/kg, 3 mice (2 without tumour)
  tumour mass in liver, per mouse sacrificed at D171 (microscopy): 검출된 종양 없음; also recorded: 간에 종양 (1.9cm)
[4]; 1 mg/kg/inj i.v. Q4Dx4
  mean survival time (as headed): 138 days
[4]; 5 mg/kg
  T/C: 137%
[4]; 5 mg/kg, 3 mice
  tumour mass in liver, per mouse sacrificed at D171 (microscopy): 검출된 종양 없음 검출된 종양 없음 검출된 종양 없음
[4]; 5 mg/kg/inj i.v. Q4Dx4
  mean survival time (as headed): 118 days
[4]; 0.1-5 mg/kg
  tolerance (body weight): 내약성이 우수함
[5]; 0.1 mg/kg PO
  mice with more than 1 liver metastasis: 25%
[5]; 0.1 mg/kg/adm PO
  mean body weight change at D-2: 7.1±4.6%
[5]; 1 mg/kg PO
  number of mice without liver metastasis: 가장 높았으며
[5]; 1 mg/kg PO, vehicle 40%
  mice with more than 1 liver metastasis: 12.5%
[5]; 1 mg/kg SC
  mice with more than 1 liver metastasis: 25%
[5]; PO/SC 0.1 and 1 mg/kg Q1Dx14, vehicle 33%, group order not given
  mortality D0-D9 (surgical complications) in the four treated groups, as listed: 40% and 34% and 47%
[5]; Q1Dx14
  tolerance of treatment: 내약(tolerated)되었음
Wistar rats; 4 mg/kg i.v. x1 (d21), day 49
  glomerular injury score (GIS): 1.53 ± 0.05
Wistar rats; 4 mg/kg i.v. x1 (d21), day 77, PAN/vehicle 1.39 ± 0.10
  glomerular injury score (GIS): 0.82 ± 0.04
Wistar rats; 4 mg/kg i.v. x1, day 77 (PAN/vehicle 91%)
  percentage of injured glomeruli: 69%
Wistar rats; 4 mg/kg i.v. x2 (d21, d35), day 49, P<0.01
  glomerular injury score (GIS): 1.26 ± 0.06
Wistar rats; 4 mg/kg i.v. x4 (weekly from d21), day 49, PAN/vehicle 1.50 ± 0.06
  glomerular injury score (GIS): 0.94 ± 0.05
